In ChEMBL document CHEMBL3580597 (J Med Chem, 2015):
pKd, pKi: −log10 of the molar value.

Key:
[1] = biological target: Bromodomain-containing protein 2 (Homo sapiens, UniProt P25440); assay: Displacement of FAM-labeled ZBA248 from BRD2 BD2 (349 to 460 amino acid residues) (unknown origin) expressed in Rosetta2 DE3 cells after 30 mins by fluorescence polarization assay
[2] = biological target: SWI/SNF-related matrix-associated actin-dependent regulator of chromatin subfamily A member 4 (Homo sapiens, UniProt P51532); assay: Binding affinity to biotinylated BRG1 (59 to 180 amino acid residues) (unknown origin) expressed in Rosetta2 cells by bio-layer interferometry method
SWI/SNF-related matrix-associated actin-dependent regulator of chromatin subfamily A member 4, sequence (P51532 whole entry, the tested form may be a part): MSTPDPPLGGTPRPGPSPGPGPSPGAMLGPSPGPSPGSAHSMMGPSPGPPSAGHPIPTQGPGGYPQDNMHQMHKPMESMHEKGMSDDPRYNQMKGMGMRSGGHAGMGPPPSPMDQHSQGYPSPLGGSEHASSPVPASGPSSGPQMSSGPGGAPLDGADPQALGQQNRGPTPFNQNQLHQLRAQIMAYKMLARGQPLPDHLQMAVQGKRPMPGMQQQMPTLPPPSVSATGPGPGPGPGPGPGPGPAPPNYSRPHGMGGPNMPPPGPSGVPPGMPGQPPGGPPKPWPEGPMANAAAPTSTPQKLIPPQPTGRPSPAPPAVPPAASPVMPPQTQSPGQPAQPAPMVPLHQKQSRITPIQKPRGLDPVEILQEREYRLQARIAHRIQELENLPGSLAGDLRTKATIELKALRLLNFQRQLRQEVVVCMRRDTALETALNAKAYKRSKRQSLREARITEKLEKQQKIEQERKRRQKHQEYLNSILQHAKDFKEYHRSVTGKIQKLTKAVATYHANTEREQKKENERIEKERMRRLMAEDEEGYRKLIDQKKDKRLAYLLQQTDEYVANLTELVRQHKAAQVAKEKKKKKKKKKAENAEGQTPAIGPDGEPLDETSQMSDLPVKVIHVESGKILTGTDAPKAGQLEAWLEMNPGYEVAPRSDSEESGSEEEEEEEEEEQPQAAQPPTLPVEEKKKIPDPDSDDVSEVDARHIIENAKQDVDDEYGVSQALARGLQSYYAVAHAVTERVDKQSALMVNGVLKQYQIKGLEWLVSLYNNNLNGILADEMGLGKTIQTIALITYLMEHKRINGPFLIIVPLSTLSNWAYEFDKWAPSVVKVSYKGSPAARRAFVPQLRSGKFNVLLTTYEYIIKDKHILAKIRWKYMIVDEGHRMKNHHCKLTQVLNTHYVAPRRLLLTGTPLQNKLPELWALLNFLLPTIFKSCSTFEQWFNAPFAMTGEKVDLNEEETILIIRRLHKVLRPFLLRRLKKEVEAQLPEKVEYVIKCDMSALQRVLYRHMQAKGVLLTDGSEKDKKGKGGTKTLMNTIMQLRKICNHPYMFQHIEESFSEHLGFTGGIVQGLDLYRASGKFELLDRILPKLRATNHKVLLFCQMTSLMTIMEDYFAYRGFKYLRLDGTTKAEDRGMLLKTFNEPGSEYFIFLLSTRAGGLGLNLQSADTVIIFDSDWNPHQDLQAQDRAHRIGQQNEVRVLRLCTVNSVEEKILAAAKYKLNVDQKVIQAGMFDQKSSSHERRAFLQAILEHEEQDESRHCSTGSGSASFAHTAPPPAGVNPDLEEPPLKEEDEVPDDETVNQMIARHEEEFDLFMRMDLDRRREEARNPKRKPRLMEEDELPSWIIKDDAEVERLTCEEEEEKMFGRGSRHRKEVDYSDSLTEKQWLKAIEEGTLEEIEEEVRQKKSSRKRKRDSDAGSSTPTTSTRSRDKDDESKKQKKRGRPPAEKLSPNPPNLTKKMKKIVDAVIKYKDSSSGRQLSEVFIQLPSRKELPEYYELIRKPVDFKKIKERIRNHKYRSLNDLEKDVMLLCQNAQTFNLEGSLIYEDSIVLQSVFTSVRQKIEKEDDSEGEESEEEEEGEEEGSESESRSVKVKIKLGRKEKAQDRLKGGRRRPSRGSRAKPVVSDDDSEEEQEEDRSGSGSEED

Bromodomain-containing protein 2, sequence (P25440 whole entry, the tested form may be a part): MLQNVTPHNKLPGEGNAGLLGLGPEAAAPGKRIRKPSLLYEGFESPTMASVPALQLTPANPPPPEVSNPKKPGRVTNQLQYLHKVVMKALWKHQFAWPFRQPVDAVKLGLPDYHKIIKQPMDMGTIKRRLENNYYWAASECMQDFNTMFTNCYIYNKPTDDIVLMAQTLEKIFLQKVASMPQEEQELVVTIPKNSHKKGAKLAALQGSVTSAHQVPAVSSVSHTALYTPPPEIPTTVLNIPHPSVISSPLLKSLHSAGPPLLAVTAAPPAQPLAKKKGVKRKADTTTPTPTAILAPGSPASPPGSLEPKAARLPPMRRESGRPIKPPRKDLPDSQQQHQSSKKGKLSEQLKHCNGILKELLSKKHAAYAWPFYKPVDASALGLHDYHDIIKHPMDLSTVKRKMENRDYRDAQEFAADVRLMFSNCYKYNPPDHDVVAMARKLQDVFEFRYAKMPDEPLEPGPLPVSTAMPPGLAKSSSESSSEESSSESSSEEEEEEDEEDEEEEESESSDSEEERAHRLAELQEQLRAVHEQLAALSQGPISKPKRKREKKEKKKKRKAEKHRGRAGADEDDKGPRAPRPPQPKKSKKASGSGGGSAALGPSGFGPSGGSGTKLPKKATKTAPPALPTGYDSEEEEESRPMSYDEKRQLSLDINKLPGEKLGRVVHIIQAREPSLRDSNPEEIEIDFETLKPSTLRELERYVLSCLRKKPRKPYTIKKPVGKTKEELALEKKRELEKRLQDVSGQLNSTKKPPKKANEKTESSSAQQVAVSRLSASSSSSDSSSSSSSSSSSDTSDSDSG

## COc1cc2c(cc1-c1c(C)noc1C)[nH]c1ccnc(-c3c(C4CC4)n[nH]c3C)c12
[1]
  pKi: 7.93
[2]
  pKd: < 5.00
